Source: patent EP0904079B1, “ANTIDIABETIC AGENTS” (MERCK & CO., INC., priority 1996, dated 1997)

Target: T1, Human PPARδ (Homo sapiens, UniProt Q03181)
T1 construct: The full length human cDNA for PPARγ2 and PPARδ were subcloned into the PGEX-2T and PGEX-KT, respectively, expression vector; made in house; host or cells: E. coli
T1 sequence (Q03181 1-441): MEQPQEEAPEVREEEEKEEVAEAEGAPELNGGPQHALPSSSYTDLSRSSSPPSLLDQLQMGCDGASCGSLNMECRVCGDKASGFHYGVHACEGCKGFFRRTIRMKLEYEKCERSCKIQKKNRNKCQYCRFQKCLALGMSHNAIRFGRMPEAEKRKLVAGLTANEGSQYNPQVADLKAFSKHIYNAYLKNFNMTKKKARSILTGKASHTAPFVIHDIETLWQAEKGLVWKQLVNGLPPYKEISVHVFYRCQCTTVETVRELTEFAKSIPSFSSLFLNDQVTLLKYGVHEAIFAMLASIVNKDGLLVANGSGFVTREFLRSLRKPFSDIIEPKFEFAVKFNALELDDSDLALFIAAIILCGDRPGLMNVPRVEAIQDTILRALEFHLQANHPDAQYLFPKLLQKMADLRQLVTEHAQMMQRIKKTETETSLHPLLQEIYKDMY
Assay: [3H2]Example 11 displacement assay (PPAR receptor binding assay)
Protocol: Human PPARγ2 and PPARδ, independently, were prepared as gst-fusion proteins in E. coli. The full length human cDNA for PPARγ2 and PPARδ were subcloned into the PGEX-2T and PGEX-KT, respectively, expression vector (Pharmacia). E. coli containing the plasmid were grown, induced, and then harvested by centrifugation. The resuspended pellet was broken in a French press and debris was removed by centrifugation at 12,000Xg. Receptors were purified from the supernatant by affinity chromatography on glutathione sepharose. After application to the column, and 1 wash, receptor was eluted with glutathione. Glycerol was added to stabilize the receptor and aliquots were frozen at -80 °C for later use.
Assays were incubated for ∼ 16 h at 4 °C in a final volume of 300 µl. Unbound ligand was removed by addition of 200 µl dextran/gelatin-coated charcoal, on ice, for ∼10 minutes. After centrifugation at 3000 rpm for 10 min at 4 °C, 200 µl of the supernatant fraction was counted in a liquid scintillation counter.

SMILES: CCCc1c(OCCCSc2ccc(CC(=O)O)cc2Cl)ccc2oc3ccccc3c12 [Example 11, 3-Chloro-4-(1-propyl-dibenzofuranyl-2-oxy-propylthio)-phenylacetic acid]
- Kd: 1 nM
